# Results: ChEMBL document CHEMBL1201862, “PubChem BioAssay data set” (2004)
#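 The compound was tested at five concentrations on cells cultured in 96-well plates, with a 48-hour exposure period. Abbreviation: GI50, concentration required for 50% inhibition of growth.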 The source made the active and inactive calls. Cut-off read from the data, not from the text of the source: active = GI50 up to about 1.1 µM and inactive = higher.
# What was measured:
# Assay in all cases: growth of human tumour cells (NCI), 48 h
# PC-3 = system: PC-3
# COLO 205 = system: COLO 205
# K562 = system: K562
# A549 = system: A549
# ACHN = system: ACHN
# MDA-MB-435 = system: MDA-MB-435
# MCF7 = system: MCF7
# OVCAR-8 = system: OVCAR-8
# NCI-H522 = system: NCI-H522
# SN12C = system: SN12C
# RPMI-8226 = system: RPMI-8226
# HCT-15 = system: HCT-15
# SF-539 = system: SF-539
# CCRF-CEM = system: CCRF-CEM
# HOP-62 = system: HOP-62
# EKVX = system: EKVX
# NCI-H460 = system: NCI-H460
# CAKI-1 = system: CAKI-1
# UO-31 = system: UO-31
# DU-145 = system: DU-145
SMILES,GI50 (PC-3),GI50 (COLO 205),GI50 (K562),GI50 (A549),GI50 (ACHN),GI50 (MDA-MB-435),GI50 (MCF7),GI50 (OVCAR-8),GI50 (NCI-H522),GI50 (SN12C),GI50 (RPMI-8226),GI50 (HCT-15) [µM],GI50 (SF-539),GI50 (CCRF-CEM),GI50 (HOP-62),GI50 (EKVX),GI50 (NCI-H460),GI50 (CAKI-1),GI50 (UO-31),GI50 (DU-145)
CCOc1ccc(C2c3[nH]c4ccccc4c3CCN2C(=O)c2cccs2)cc1 (stereo not given),4.59 µM (inactive),8.47 µM (inactive),2.34 µM (inactive),7.03 µM (inactive),44.5 µM (inactive),6.61 µM (inactive),7.6 µM (inactive),36.4 µM (inactive),9.79 µM (inactive),> 100 µM (inactive),5.41 µM (inactive),1.74,3.51 µM (inactive),3.48 µM (inactive),4.67 µM (inactive),7.35 µM (inactive),2.2 µM (inactive),9.14 µM (inactive),14.2 µM (inactive),68.9 µM (inactive)
Cc1ccc([N+](=O)[O-])cc1NC1=NCCO1,> 100 µM (inactive),> 100 µM (inactive),> 100 µM (inactive),> 100 µM (inactive),> 100 µM (inactive),> 100 µM (inactive),> 100 µM (inactive),> 100 µM (inactive),> 100 µM (inactive),> 100 µM (inactive),> 100 µM (inactive),> 100,> 100 µM (inactive),> 100 µM (inactive),> 100 µM (inactive),> 100 µM (inactive),> 100 µM (inactive),> 100 µM (inactive),> 100 µM (inactive),> 100 µM (inactive)
C=CCC1=CC2(OC)C(=O)C(OC)(OC)C1C1C(OC)(OC)C(=O)C(OC)=CC12CC=C (stereo not given),> 100 µM (inactive),> 100 µM (inactive),> 100 µM (inactive),> 100 µM (inactive),> 100 µM (inactive),> 100 µM (inactive),> 100 µM (inactive),> 100 µM (inactive),> 100 µM (inactive),> 100 µM (inactive),> 100 µM (inactive),> 100,> 100 µM (inactive),> 100 µM (inactive),> 100 µM (inactive),> 100 µM (inactive),> 100 µM (inactive),> 100 µM (inactive),> 100 µM (inactive),> 100 µM (inactive)
O=C(NCc1cccs1)OC1CC2CCC1C2 (stereo not given),> 100 µM (inactive),> 100 µM (inactive),> 100 µM (inactive),> 100 µM (inactive),> 100 µM (inactive),> 100 µM (inactive),> 100 µM (inactive),> 100 µM (inactive),> 100 µM (inactive),> 100 µM (inactive),> 100 µM (inactive),> 100,> 100 µM (inactive),> 100 µM (inactive),> 100 µM (inactive),> 100 µM (inactive),> 100 µM (inactive),> 100 µM (inactive),> 100 µM (inactive),> 100 µM (inactive)
C[C@H](CCC(=O)NCC(=O)O)[C@H]1CC[C@H]2[C@@H]3[C@H](O)C[C@@H]4C[C@H](O)CC[C@]4(C)[C@H]3CC[C@]12C,> 100 µM (inactive),> 100 µM (inactive),> 100 µM (inactive),> 100 µM (inactive),> 100 µM (inactive),> 100 µM (inactive),> 100 µM (inactive),> 100 µM (inactive),> 100 µM (inactive),> 100 µM (inactive),> 100 µM (inactive),> 100,> 100 µM (inactive),> 100 µM (inactive),> 100 µM (inactive),> 100 µM (inactive),> 100 µM (inactive),> 100 µM (inactive),> 100 µM (inactive),> 100 µM (inactive)
NC1CSc2ccccc2NC1=O (stereo not given),> 100 µM (inactive),> 100 µM (inactive),> 100 µM (inactive),> 100 µM (inactive),> 100 µM (inactive),> 100 µM (inactive),> 100 µM (inactive),> 100 µM (inactive),> 100 µM (inactive),> 100 µM (inactive),> 100 µM (inactive),> 100,> 100 µM (inactive),> 100 µM (inactive),> 100 µM (inactive),> 100 µM (inactive),> 100 µM (inactive),> 100 µM (inactive),> 100 µM (inactive),> 100 µM (inactive)
CC(=O)OC1CC2CC(=O)CC1N2C (stereo not given),> 100 µM (inactive),> 100 µM (inactive),> 100 µM (inactive),> 100 µM (inactive),> 100 µM (inactive),> 100 µM (inactive),> 100 µM (inactive),> 100 µM (inactive),> 100 µM (inactive),> 100 µM (inactive),68.7 µM (inactive),> 100,> 100 µM (inactive),> 100 µM (inactive),> 100 µM (inactive),> 100 µM (inactive),> 100 µM (inactive),> 100 µM (inactive),> 100 µM (inactive),> 100 µM (inactive)
